Laboratory results published in US4087548A, “Complement inhibitors” (American Cyanamid Company, priority 1976, dated 1978).
Where a name gives a salt, the structure may show the parent alone.

Experiments:
guinea pigs = assay: Forssman Shock Test; format: in vivo, guinea pig; conditions: control = 3.15 minutes
Description: (§1) This test measures the ability of activated human C1 to destroy fluid phase human C2 in the presence of C4 and appropriate dilutions of the test compound. An active inhibitor protects C2 from C1 and C4; (ii) Test, Code 035 (C3-C9 inhibitor) -- This test determines the ability of the late components of human complement (C3-C9) to lyse EAC 142 in the presence of appropriate dilutions of the test compound. An active inhibitor protects EAC 142 from lysis by human C3-C9; (iii) Test, Code 036 (C-Shunt inhibitor) -- In this test human erythrocytes rendered fragile are lysed in autologous serum via the shunt pathway activated by cobra venom factor in the presence of appropriate dilutions of the test compound. Inhibition of the shunt pathway results in failure of lysis; (iv) Forssman Vasculitis Test -- Here, the well known complement dependent lesion, Forssman vasculitis, is produced in guinea pigs by intradermal injection of rabbit anti-Forssman antiserum. The lesion is measured in terms of diameter, edema and hemorrhage and the extent to which a combined index of these is inhibited by prior intraperitoneal injection of the test compound at 200 mg/kg is then reported, unless otherwise stated; (v) Forssman Shock Test -- Lethal shock is produced in guinea pigs by an i.v. injection of anti-Forssman antiserum and the harmonic mean death time of treated guinea pigs is compared with that of simultaneous controls; (vi) Complement Level Reduction Test -- In this test, the above dosed guinea pigs, or others, are bled for serum and the complement level is determined in undiluted serum by the capillary tube method of U.S. Pat. No. 3,876,376 and compared to undosed control guinea pigs; and (vii) Cap 50 Test -- Here, appropriate amounts of the test compound are added to a pool of guinea pig serum in vitro, after which the undiluted serum capillary tube assay referred to above is run. The concentration of compound inhibiting 50% is reported.
***Harmonic mean death time in minutes. (control = 3.15 minutes).

[1] = system: shunt pathway activated by cobra venom factor; assay: Test, Code 036 (C-Shunt inhibitor), lysis of human erythrocytes in autologous serum; format: cell-based; conditions: serial two-fold dilutions assay; higher well number indicates higher activity
Description: as §1
(§2) **Numbers represent activity in wells, a serial dilutions assay, higher
(§3) well number indicates higher activity. The serial dilutions are two-fold.

[2] = system: late components of human complement (C3-C9); assay: Test, Code 035 (C3-C9 inhibitor), lysis of EAC 142; format: cell-based; conditions: serial two-fold dilutions assay; higher well number indicates higher activity
Procedure: as §1, with “An active inhibitor protects EAC 142 from lysis by human C3-C9; (iii) Test, Code 036 (C-Shunt inhibitor) -- In this test human erythrocytes rendered fragile are lysed in autologous serum via the shunt pathway activated by cobra venom factor in the presence of appropriate dilutions of the test compound. Inhibition of the shunt pathway results in failure of lysis; (iv) Forssman Vasculitis Test -- Here, the well known complement dependent lesion, Forssman vasculitis, is produced in guinea pigs by intradermal injection of rabbit anti-Forssman antiserum.” left out, “The concentration of compound inhibiting 50% is reported.” left out

activated human C1 = target: T1, activated human C1 (Homo sapiens, UniProt P09871); assay: Test, Code 026 (C1 inhibitor); format: biochemical; conditions: serial two-fold dilutions assay; higher well number indicates higher activity
T1 construct: C1s cleaved into disulfide-linked heavy and light chains; fluid-phase C2 consumption with C4
Description: as §1, §2, §3

T1 sequence (P09871 16-688): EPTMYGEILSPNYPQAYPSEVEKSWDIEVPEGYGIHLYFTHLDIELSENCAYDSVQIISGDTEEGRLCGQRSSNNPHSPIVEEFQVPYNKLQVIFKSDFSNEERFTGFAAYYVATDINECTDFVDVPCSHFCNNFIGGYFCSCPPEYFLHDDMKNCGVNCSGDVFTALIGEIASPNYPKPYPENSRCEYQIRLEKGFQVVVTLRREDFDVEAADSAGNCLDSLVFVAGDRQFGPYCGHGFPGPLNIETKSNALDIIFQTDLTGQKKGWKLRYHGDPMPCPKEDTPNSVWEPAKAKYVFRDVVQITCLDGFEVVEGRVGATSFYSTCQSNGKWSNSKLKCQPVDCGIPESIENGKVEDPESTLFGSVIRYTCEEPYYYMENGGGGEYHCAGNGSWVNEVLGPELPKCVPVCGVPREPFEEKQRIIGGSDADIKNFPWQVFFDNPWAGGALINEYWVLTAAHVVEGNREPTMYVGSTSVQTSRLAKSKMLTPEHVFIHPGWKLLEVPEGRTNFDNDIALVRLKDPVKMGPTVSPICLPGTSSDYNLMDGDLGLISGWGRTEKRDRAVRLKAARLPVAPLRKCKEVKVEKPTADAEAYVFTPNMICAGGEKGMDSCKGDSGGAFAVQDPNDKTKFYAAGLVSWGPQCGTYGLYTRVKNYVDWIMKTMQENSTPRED
T1 sequence (P00736 18-705 partner): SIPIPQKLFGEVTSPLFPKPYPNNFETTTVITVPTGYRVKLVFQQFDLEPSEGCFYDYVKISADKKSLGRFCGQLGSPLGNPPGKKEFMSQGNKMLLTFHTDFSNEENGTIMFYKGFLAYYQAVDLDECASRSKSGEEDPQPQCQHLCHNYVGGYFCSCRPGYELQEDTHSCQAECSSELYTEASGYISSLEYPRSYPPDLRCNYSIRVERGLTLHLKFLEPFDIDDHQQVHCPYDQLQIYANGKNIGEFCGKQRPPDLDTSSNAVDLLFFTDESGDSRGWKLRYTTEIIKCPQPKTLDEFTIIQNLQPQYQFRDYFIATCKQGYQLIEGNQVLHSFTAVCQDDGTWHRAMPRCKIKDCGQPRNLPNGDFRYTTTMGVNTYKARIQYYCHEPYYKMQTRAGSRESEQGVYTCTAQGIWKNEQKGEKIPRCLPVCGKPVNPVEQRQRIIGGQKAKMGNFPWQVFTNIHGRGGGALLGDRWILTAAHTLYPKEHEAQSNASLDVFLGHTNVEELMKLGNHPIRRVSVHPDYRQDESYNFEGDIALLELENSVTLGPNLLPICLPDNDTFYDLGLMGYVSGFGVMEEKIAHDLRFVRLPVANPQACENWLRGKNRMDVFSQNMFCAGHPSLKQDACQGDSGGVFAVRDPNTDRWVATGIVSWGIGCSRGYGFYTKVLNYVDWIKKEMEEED
T1 sequence (P02745 23-245 partner): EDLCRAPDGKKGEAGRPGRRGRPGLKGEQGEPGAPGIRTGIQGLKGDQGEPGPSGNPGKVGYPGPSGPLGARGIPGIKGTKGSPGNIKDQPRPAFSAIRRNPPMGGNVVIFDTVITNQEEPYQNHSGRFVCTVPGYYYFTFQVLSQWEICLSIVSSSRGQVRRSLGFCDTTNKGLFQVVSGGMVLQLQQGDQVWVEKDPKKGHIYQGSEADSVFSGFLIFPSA
T1 sequence (P02746 28-253 partner): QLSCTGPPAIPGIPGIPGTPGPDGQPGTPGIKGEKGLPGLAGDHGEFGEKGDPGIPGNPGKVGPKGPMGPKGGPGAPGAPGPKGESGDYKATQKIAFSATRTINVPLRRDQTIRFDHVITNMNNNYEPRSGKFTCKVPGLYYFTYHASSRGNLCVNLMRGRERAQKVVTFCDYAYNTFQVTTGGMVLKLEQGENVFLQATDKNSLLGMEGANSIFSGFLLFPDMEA
T1 sequence (P02747 29-245 partner): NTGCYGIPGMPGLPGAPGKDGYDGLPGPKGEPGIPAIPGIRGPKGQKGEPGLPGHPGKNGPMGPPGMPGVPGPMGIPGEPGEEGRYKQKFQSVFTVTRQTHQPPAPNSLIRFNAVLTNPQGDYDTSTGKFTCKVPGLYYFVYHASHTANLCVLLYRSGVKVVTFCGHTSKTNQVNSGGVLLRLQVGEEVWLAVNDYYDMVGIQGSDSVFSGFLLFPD

| SMILES | Forssman Shock, harmonic mean death time (guinea pigs; route not given) | Code 026 (activity in wells) (activated human C1) | further results |
| --- | --- | --- | --- |
| O=C(Nc1cccc(C(=O)Nc2cc3c(S(=O)(=O)[O-])cc(S(=O)(=O)[O-])cc3cc2S(=O)(=O)[O-])c1)Nc1cccc(C(=O)Nc2cc3c(S(=O)(=O)[O-])cc(S(=O)(=O)[O-])cc3cc2S(=O)(=O)[O-])c1.[Na+].[Na+].[Na+].[Na+].[Na+].[Na+] [7,7'-[Ureylenebis(m-phenylenecarbonylimino)]di-1,3,6-naphthalenetrisulfonic acid, hexasodium salt] | 14 min | – | Code 036 (activity in wells) [1]: +1 wells; Code 035 (activity in wells) [2]: +1 wells |
| Nc1cccc(C(=O)Nc2cc3c(S(=O)(=O)[O-])cc(S(=O)(=O)[O-])cc3cc2S(=O)(=O)[O-])c1.[Na+].[Na+].[Na+] [7-(m-Aminobenzamido)-1,3,6-naphthalenetrisulfonic acid, trisodium salt] | 33 min | – | – |
| O=C(Nc1cc2c(S(=O)(=O)[O-])cc(S(=O)(=O)[O-])cc2cc1S(=O)(=O)[O-])c1cccc([N+](=O)[O-])c1.[Na+].[Na+].[Na+] [7-m-Nitrobenzamido-1,3,6-naphthalenetrisulfonic acid, trisodium salt] | 20 min | – | – |
| Cc1ccc(C(=O)Nc2cc(S(=O)(=O)O)cc3cc(S(=O)(=O)O)cc(S(=O)(=O)O)c23)cc1NC(=O)Nc1cc(C(=O)Nc2cc(S(=O)(=O)O)cc3cc(S(=O)(=O)O)cc(S(=O)(=O)O)c23)ccc1C [8,8'-[Ureylenebis(4-methyl-m-phenylenecarbonylimino)]di-1,3,6-naphthalenetrisulfonic acid, hexasodium salt] | – | – | Forssman Shock, harmonic mean death time (guinea pigs; i.p.): 28 min; Forssman Shock, harmonic mean death time (guinea pigs; i.v.): 46 min |
| Cc1ccc(NC(=O)Nc2ccc(C)c(C(=O)Nc3cc(S(=O)(=O)O)cc4cc(S(=O)(=O)O)cc(S(=O)(=O)O)c34)c2)cc1C(=O)Nc1cc(S(=O)(=O)O)cc2cc(S(=O)(=O)O)cc(S(=O)(=O)O)c12 [8,8'-[Ureylenebis(6-methyl-m-phenylenecarbonylimino)]di-1,3,6-naphthalenetrisulfonic acid, hexasodium salt] | 11 min | +5 wells | Code 035 (activity in wells) [2]: +4 wells |
| O=C(Nc1cccc(C(=O)Nc2cc(S(=O)(=O)[O-])cc3cc(S(=O)(=O)[O-])cc(S(=O)(=O)[O-])c23)c1)Nc1cccc(C(=O)Nc2cc(S(=O)(=O)[O-])cc3cc(S(=O)(=O)[O-])cc(S(=O)(=O)[O-])c23)c1.[Na+].[Na+].[Na+].[Na+].[Na+].[Na+] [8,8'-[Ureylenebis(m-phenylenecarbonylimino)]di-1,3,6-naphthalenetrisulfonicacid, hexasodium salt] | – | +6 wells | Code 036 (activity in wells) [1]: +1 wells |
| O=C(Nc1ccc(C(=O)Nc2cc(S(=O)(=O)[O-])cc3cc(S(=O)(=O)[O-])cc(S(=O)(=O)[O-])c23)cc1)Nc1ccc(C(=O)Nc2cc(S(=O)(=O)[O-])cc3cc(S(=O)(=O)[O-])cc(S(=O)(=O)[O-])c23)cc1.[Na+].[Na+].[Na+].[Na+].[Na+].[Na+] [8,8'-[Ureylenebis(p-phenylenecarbonylimino)]di-1,3,6-naphthalenetrisulfonicacid, hexasodium salt] | – | +4 wells | – |
| Cc1ccc(C(=O)Nc2cc(S(=O)(=O)O)cc3cc(S(=O)(=O)O)cc(S(=O)(=O)O)c23)cc1NC(=O)C(=O)Nc1cc(C(=O)Nc2cc(S(=O)(=O)O)cc3cc(S(=O)(=O)O)cc(S(=O)(=O)O)c23)ccc1C [8,8'-{Oxalylbis {{[imino(4-methyl-1,3-phenylene)]carbonyl}imino}}di-1,3,6-naphthalenetrisulfonic acid, hexasodium salt] | – | +4 wells | Code 036 (activity in wells) [1]: +3 wells |
| Cc1ccc(NC(=O)Nc2cc(S(=O)(=O)O)cc3cc(S(=O)(=O)O)cc(S(=O)(=O)O)c23)cc1NC(=O)Nc1cc(NC(=O)Nc2cc(S(=O)(=O)O)cc3cc(S(=O)(=O)O)cc(S(=O)(=O)O)c23)ccc1C [8,8'-{Ureylenebis[(4-methyl-m-phenylene)ureylene]}di-1,3,6-naphthalenetrisulfonic acid, hexasodium salt] | – | +4 wells | Code 036 (activity in wells) [1]: +1 wells |
| Cc1ccc(C(=O)Nc2cc(S(=O)(=O)O)cc3cc(S(=O)(=O)O)cc(S(=O)(=O)O)c23)cc1N [8-(3-Amino-p-toluamido)-1,3,6-naphthalenetrisulfonic acid, trisodium salt] | 14 min | +3 wells | – |
| Cc1ccc(C(=O)Nc2cc(S(=O)(=O)O)cc3cc(S(=O)(=O)O)cc(S(=O)(=O)O)c23)cc1[N+](=O)[O-] [8-(3-Nitro-p-toluamido)-1,3,6-naphthalenetrisulfonic acid, trisodium salt] | 25 min | +2 wells | – |
| Cc1cc(C(=O)Nc2cc(S(=O)(=O)O)cc3cc(S(=O)(=O)O)cc(S(=O)(=O)O)c23)ccc1N [8-(4-Amino-m-toluamido)-1,3,6-naphthalenetrisulfonic acid, trisodium salt] | 14 min | +3 wells | – |
| Cc1cc(C(=O)Nc2cc(S(=O)(=O)O)cc3cc(S(=O)(=O)O)cc(S(=O)(=O)O)c23)ccc1[N+](=O)[O-] [8-(4-Nitro-m-toluamido)-1,3,6-naphthalenetrisulfonic acid, trisodium salt] | 46 min | +1 wells | – |
| Cc1ccc(N)cc1C(=O)Nc1cc(S(=O)(=O)O)cc2cc(S(=O)(=O)O)cc(S(=O)(=O)O)c12 [8-(5-Amino-o-toluamido)-1,3,6-naphthalenetrisulfonic acid, trisodium salt] | 14 min | – | – |
| Nc1ccc(C(=O)Nc2cc(S(=O)(=O)[O-])cc3cc(S(=O)(=O)[O-])cc(S(=O)(=O)[O-])c23)cc1.[Na+].[Na+].[Na+] [8-(p-Aminobenzamido)-1,3,6-naphthalenetrisulfonic acid, trisodium salt] | 10 min | +3 wells | – |
| Nc1cccc(C(=O)Nc2cccc(C(=O)Nc3cc(S(=O)(=O)[O-])cc4cc(S(=O)(=O)[O-])cc(S(=O)(=O)[O-])c34)c2)c1.[Na+].[Na+].[Na+] [8-[m-(m-Aminobenzamido)benzamido]-1,3,6-naphthalene-trisulfonic acid, trisodium salt] | – | +2 wells | – |
| O=C(Nc1cc(S(=O)(=O)[O-])cc2cc(S(=O)(=O)[O-])cc(S(=O)(=O)[O-])c12)c1ccc([N+](=O)[O-])cc1.[Na+].[Na+].[Na+] [8-p-Nitrobenzamido-1,3,6-naphthalenetrisulfonic acid, trisodium salt] | 13 min | +1 wells | – |
| Cc1ccc(NC(=O)Nc2cccc(C(=O)Nc3cc(S(=O)(=O)[O-])cc4cc(S(=O)(=O)[O-])cc(S(=O)(=O)[O-])c34)c2)cc1[N+](=O)[O-].[Na+].[Na+].[Na+] [8-{m-[3-(3-Nitro-p-tolyl)ureido]benzamido}-1,3,6-naphthalenetrisulfonic acid, trisodium salt] | 32 min | +2 wells | – |
